# Test results taken from paper PMC7441158 (Nature Communications, 2020).
# What was measured:
# neprilysin (NEP) [1] = target: T1, neprilysin (NEP) (Homo sapiens, UniProt P08473); test: In vitro degradation by neprilysin, MALDI-TOF timecourse assay; type: in vitro ADME; conditions: sialylated ST O-glycan structure, 15 µM peptide, 37 °C, pH 9.0, NEP 20 ng/μL (PYY), 150 pg/μL (GAL)
# T1 construct: purchased R&D Systems
# Procedure: Recombinant protease assays were performed in a MALDI-TOF timecourse assay. […] The amount of enzyme used was optimized to fully digest the non-glycosylated peptide hormone of interest within 1 h of incubation.
# MALDI-TOF-MS was performed in linear positive mode on a Bruker Autoflex instrument (Bruker Daltonik GmbH, Bremen, Germany) by mixing the quenched aliquots with a saturated solution of α-Cyano-4-hydroxycinnamic acid in ACN/H2O/TFA (70:30:0.1) at a 1:1 ratio on a target steel plate.
# [2] = cited from earlier work
# [3] = test system: dipeptidyl peptidase IV (DPP-IV); test: DPP-IV (R&D Systems) in 50 mM Tris, pH 8.0; conditions: 37 °C, up to 24 h
# neprilysin (NEP) [4] = test: NEP (R&D Systems) in 50 mM Tris, 0.05% Brij-35, pH 9.0; conditions: 37 °C, up to 24 h
# [5] = Half-life of native and glycosylated GLP-1 isoforms in rats; conditions: anesthetized male Wistar rats, i.v. bolus 20 nmol/kg; for half-life t1/2 in circulation: n = 8 per group, total GLP-1 in plasma (assay against amidated C-terminus: intact 7–36 amide and metabolites), one-phase decay, linear model on ln-transformed data; for detectability in circulation after injection (in words): total GLP-1 assay, plasma sampled up to 60 min
# Procedure: Male Wistar rats (≈250 g) were obtained from Janvier (Saint Berthevin Cedex, France) and housed in pairs under standard conditions with ad libitum access to chow and water. Rats were acclimatized for at least 1 week before the study. Studies were carried out on two occasions, matching on each occasion the number of rats in each group, while at the same time avoiding rats from the same cage receiving the same test solution. […] On the day of study, non-fasted rats were anesthetized by a subcutaneous injection with Hypnorm/Midazolam (0.3 ml per 100 g body weight) and placed on a heated operating table (37 °C). The abdominal cavity was opened by a midline incision and a plastic catheter was inserted in the portal vein. Blood was collected (∼300 µl per timepoint) through the catheter into ice cold EDTA-coated tubes that were immediately placed one ice. Samples were collected at timepoint −5, 0, 1, 2, 5, 10, 15, 25, 45, and 60 min. In between samples, ∼200 µL PBS were injected to flush the catheter and replace lost fluid. […] At end of study, rats were sacrificed by diaphragm perforation.
# Only data points represented by n > 4 were included in the analysis. To test the difference in rate constant (k), a multiple linear model (lm) was fitted to the pooled data with glycoform set as interaction (lm, Concentration ∼ Timepoint * Glycoform).
# [6] = intact GLP-1 (7–36 amide); cited from earlier work
# VIP receptor 1 (VPAC1) = target: T2, VIP receptor 1 (VPAC1) (Homo sapiens, UniProt P32241); test: cAMP assay, COS-7 cells transiently expressing VPAC1; type: cell-based; conditions: for EC50: log(EC50) VPAC1 + VIP, log10 of EC50, COS-7 cells, cAMP, Hill = 1, top constrained to 100%
# T2 sequence (P32241 31-457): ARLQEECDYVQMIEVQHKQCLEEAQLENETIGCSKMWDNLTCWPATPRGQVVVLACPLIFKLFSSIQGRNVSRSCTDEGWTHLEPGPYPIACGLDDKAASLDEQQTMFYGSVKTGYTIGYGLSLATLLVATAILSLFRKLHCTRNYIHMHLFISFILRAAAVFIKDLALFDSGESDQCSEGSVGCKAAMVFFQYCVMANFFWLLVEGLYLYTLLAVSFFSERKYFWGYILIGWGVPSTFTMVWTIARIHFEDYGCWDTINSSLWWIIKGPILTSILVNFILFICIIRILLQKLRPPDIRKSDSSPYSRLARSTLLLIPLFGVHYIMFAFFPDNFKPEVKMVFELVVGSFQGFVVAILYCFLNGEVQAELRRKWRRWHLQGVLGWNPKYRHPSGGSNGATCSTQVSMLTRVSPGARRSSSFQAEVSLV
# VIP receptor 2 (VPAC2) = target: T3, VIP receptor 2 (VPAC2) (Homo sapiens, UniProt P41587); test: cAMP assay, COS-7 cells transiently expressing VPAC2; type: cell-based; conditions: for % receptor activation at 1µM agonist: VPAC2 + VIP, Suppl. fig 5a source data; for EC50: log(EC50) VPAC 2 + VIP, log10 of EC50, COS-7 cells, cAMP, Hill = 1, top constrained to 100%
# T3 sequence (P41587 24-438): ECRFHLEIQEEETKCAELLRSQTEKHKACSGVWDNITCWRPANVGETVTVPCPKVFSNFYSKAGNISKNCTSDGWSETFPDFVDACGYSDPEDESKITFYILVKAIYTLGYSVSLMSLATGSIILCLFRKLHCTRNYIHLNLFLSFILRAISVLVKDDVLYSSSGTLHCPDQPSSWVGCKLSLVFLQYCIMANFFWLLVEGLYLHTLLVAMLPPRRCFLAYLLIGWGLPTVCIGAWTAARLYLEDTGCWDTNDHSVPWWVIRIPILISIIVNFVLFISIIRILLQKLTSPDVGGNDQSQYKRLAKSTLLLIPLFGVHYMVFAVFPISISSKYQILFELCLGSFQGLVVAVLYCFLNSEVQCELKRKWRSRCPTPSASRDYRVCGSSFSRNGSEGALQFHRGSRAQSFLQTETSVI
# [7] = independent experiment 1, duplicate determinations
# [8] = independent experiment 2, duplicate determinations
# [9] = independent experiment 3, duplicate determinations
# T1 sequence (P08473 whole entry, species assumed): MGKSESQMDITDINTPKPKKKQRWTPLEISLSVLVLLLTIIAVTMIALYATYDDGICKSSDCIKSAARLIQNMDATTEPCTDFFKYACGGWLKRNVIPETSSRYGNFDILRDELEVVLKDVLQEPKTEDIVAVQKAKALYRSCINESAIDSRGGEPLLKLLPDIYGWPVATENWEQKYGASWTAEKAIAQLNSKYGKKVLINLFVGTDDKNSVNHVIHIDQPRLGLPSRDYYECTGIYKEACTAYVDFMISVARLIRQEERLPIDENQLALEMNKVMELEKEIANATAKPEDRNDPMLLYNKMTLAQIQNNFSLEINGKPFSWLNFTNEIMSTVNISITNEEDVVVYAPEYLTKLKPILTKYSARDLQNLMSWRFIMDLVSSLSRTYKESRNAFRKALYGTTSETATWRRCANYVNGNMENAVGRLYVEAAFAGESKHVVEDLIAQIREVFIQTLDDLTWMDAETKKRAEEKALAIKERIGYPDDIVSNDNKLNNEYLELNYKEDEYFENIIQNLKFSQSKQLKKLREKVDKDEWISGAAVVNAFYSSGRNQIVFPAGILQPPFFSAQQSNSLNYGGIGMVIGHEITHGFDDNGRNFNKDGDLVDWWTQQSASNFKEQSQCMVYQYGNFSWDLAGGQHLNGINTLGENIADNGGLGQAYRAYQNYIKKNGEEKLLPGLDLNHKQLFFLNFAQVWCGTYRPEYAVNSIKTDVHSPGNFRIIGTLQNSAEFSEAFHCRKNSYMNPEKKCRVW
compound,measurement,setting,value
CC(=O)N[C@H]1[C@@H](OC[C@H](NC(=O)[C@H](Cc2ccccc2)NC(=O)[C@H](CO)NC(=O)[C@H](CCCNC(=N)N)NC(=O)[C@H](Cc2c[nH]cn2)NC(=O)[C@H](CC(N)=O)NC(=O)CNC(=O)[C@@H](NC(=O)[C@H](C)NC(=O)[C@H](Cc2c[nH]cn2)NC(=O)[C@@H]2CCCN2C(=O)CNC(=O)[C@H](CC(C)C)NC(=O)[C@H](CC(C)C)NC(=O)[C@H](Cc2ccc(O)cc2)NC(=O)CNC(=O)[C@H](C)NC(=O)[C@H](CO)NC(=O)[C@H](CC(N)=O)NC(=O)[C@H](CC(C)C)NC(=O)[C@@H](NC(=O)[C@H](Cc2c[nH]c3ccccc23)NC(=O)CN)[C@@H](C)O)C(C)C)C(=O)N[C@@H](CC(=O)O)C(=O)N[C@@H](CCCCN)C(=O)N[C@@H](CC(N)=O)C(=O)NCC(=O)N[C@@H](CC(C)C)C(=O)N[C@H](C(=O)N[C@@H](CO)C(=O)O)[C@@H](C)O)O[C@H](CO)[C@H](O)[C@@H]1O[C@@H]1O[C@H](CO)[C@H](O)[C@H](O[C@]2(C(=O)O)C[C@H](O)[C@@H](NC(C)=O)[C@H]([C@H](O)[C@H](O)CO)O2)[C@H]1O [Galanin ST],full-length peptide after incubation with NEP (in words),neprilysin (NEP) [1],readily detectable after 24 h
HAEGTFTSDVSSYLEGQAAKEFIAWLVKGR,fragment found,[2],"9–36 amide, major"
same,not cleaved,[3],−: not susceptible to degradation
same,not cleaved,neprilysin (NEP) [4],−: not susceptible to degradation
HSDAVFTDNYTRLRKQMAVKKYLNSILN,not cleaved,neprilysin (NEP) [4],−: not susceptible to degradation
CC[C@H](C)[C@H](NC(=O)[C@H](Cc1ccccc1)NC(=O)[C@H](CCC(=O)O)NC(=O)[C@H](CCCCN)NC(=O)[C@H](C)NC(=O)[C@H](C)NC(=O)[C@H](CCC(N)=O)NC(=O)CNC(=O)[C@H](CCC(=O)O)NC(=O)[C@H](CC(C)C)NC(=O)[C@H](Cc1ccc(O)cc1)NC(=O)[C@H](CO)NC(=O)[C@H](CO)NC(=O)[C@@H](NC(=O)[C@H](CC(=O)O)NC(=O)[C@H](CO)NC(=O)[C@@H](NC(=O)[C@H](Cc1ccccc1)NC(=O)[C@@H](NC(=O)CNC(=O)[C@H](CCC(=O)O)NC(=O)[C@H](C)NC(=O)[C@@H](N)Cc1c[nH]cn1)[C@@H](C)O)[C@@H](C)O[C@H]1O[C@H](CO)[C@H](O)[C@H](O[C@@H]2O[C@H](CO)[C@H](O)[C@H](O[C@]3(C(=O)O)C[C@H](O)[C@@H](NC(C)=O)[C@H]([C@H](O)[C@H](O)CO)O3)[C@H]2O)[C@H]1NC(C)=O)C(C)C)C(=O)N[C@@H](C)C(=O)N[C@@H](Cc1c[nH]c2ccccc12)C(=O)N[C@@H](CC(C)C)C(=O)N[C@H](C(=O)N[C@@H](CCCCN)C(=O)NCC(=O)N[C@@H](CCCNC(=N)N)C(N)=O)C(C)C [GLP-1 ST],half-life t1/2 in circulation,[5],22.7 min
same,detectability in circulation after injection (in words),[5],readily detectable in circulation even after 60 min
GWTLNSAGYLLGPHAVGNHRSFSDKNGLTS [Galanin T],not cleaved,neprilysin (NEP) [4],−: not susceptible to degradation
"CC[C@H](C)[C@H](NC(=O)[C@H](Cc1ccccc1)NC(=O)[C@H](CCC(=O)O)NC(=O)[C@H](CCCCN)NC(=O)[C@H](C)NC(=O)[C@H](C)NC(=O)[C@H](CCC(N)=O)NC(=O)CNC(=O)[C@H](CCC(=O)O)NC(=O)[C@H](CC(C)C)NC(=O)[C@H](Cc1ccc(O)cc1)NC(=O)[C@H](CO)NC(=O)[C@H](CO)NC(=O)[C@@H](NC(=O)[C@H](CC(=O)O)NC(=O)[C@H](CO)NC(=O)[C@@H](NC(=O)[C@H](Cc1ccccc1)NC(=O)[C@@H](NC(=O)CNC(=O)[C@H](CCC(=O)O)NC(=O)[C@H](C)NC(=O)[C@@H](N)Cc1c[nH]cn1)[C@@H](C)O)[C@@H](C)O)C(C)C)C(=O)N[C@@H](C)C(=O)N[C@@H](Cc1c[nH]c2ccccc12)C(=O)N[C@@H](CC(C)C)C(=O)N[C@H](C(=O)N[C@@H](CCCCN)C(=O)NCC(=O)N[C@@H](CCCNC(=N)N)C(N)=O)C(C)C [GLP-1, glucagon-like peptide 1, reference compound]",half-life t1/2 in circulation,[5],2.7 min
same,detectability in circulation after injection (in words),[5],undetectable after the 15 min timepoint
same,"half-life in circulation, literature",[6],~ 2 min
HSDGTFTSELSRLREGARLQRLLQGLV,not cleaved,neprilysin (NEP) [4],−: not susceptible to degradation
CC[C@H](C)[C@H](NC(=O)[C@H](CO)NC(=O)[C@H](CC(N)=O)NC(=O)[C@H](CC(C)C)NC(=O)[C@H](Cc1ccc(O)cc1)NC(=O)[C@H](CCCCN)NC(=O)[C@H](CCCCN)NC(=O)[C@@H](NC(=O)[C@H](C)NC(=O)[C@H](CCSC)NC(=O)[C@H](CCC(N)=O)NC(=O)[C@H](CCCCN)NC(=O)[C@H](CCCNC(=N)N)NC(=O)[C@H](CC(C)C)NC(=O)[C@H](CCCNC(=N)N)NC(=O)[C@@H](NC(=O)[C@H](Cc1ccc(O)cc1)NC(=O)[C@H](CC(N)=O)NC(=O)[C@H](CC(=O)O)NC(=O)[C@@H](NC(=O)[C@H](Cc1ccccc1)NC(=O)[C@@H](NC(=O)[C@H](C)NC(=O)[C@H](CC(=O)O)NC(=O)[C@H](CO)NC(=O)[C@@H](N)Cc1c[nH]cn1)C(C)C)[C@@H](C)O[C@H]1O[C@H](CO)[C@H](O)[C@H](O[C@@H]2O[C@H](CO)[C@H](O)[C@H](O[C@]3(C(=O)O)C[C@H](O)[C@@H](NC(C)=O)[C@H]([C@H](O)[C@H](O)CO)O3)[C@H]2O)[C@H]1NC(C)=O)[C@@H](C)O)C(C)C)C(=O)N[C@@H](CC(C)C)C(=O)N[C@@H](CC(N)=O)C(N)=O [VIP ST],EC50,VIP receptor 1 (VPAC1); [7],0.0341 µM
same,EC50,VIP receptor 1 (VPAC1); [8],0.116 µM
same,EC50,VIP receptor 1 (VPAC1); [9],0.162 µM
same,"Efficacy raw data for Glucagon-receptors, VPAC1 + VIP",VIP receptor 1 (VPAC1); replicate 1,91.02
same,"Efficacy raw data for Glucagon-receptors, VPAC1 + VIP",VIP receptor 1 (VPAC1); replicate 2,112.4
same,"Efficacy raw data for Glucagon-receptors, VPAC1 + VIP",VIP receptor 1 (VPAC1); replicate 3,93.56
same,% receptor activation at 1µM agonist,VIP receptor 2 (VPAC2); replicate 1,68.0%
same,% receptor activation at 1µM agonist,VIP receptor 2 (VPAC2); replicate 2,68.9%
same,% receptor activation at 1µM agonist,VIP receptor 2 (VPAC2); replicate 3,66.1%
same,% receptor activation at 1µM agonist,VIP receptor 2 (VPAC2); replicate 4,69.7%
same,% receptor activation at 1µM agonist,VIP receptor 2 (VPAC2); replicate 5,54.2%
same,% receptor activation at 1µM agonist,VIP receptor 2 (VPAC2); replicate 6,49.2%
same,EC50,VIP receptor 2 (VPAC2); [7],0.378 µM
same,EC50,VIP receptor 2 (VPAC2); [8],0.596 µM
same,EC50,VIP receptor 2 (VPAC2); [9],0.946 µM
same,"Efficacy raw data for Glucagon-receptors, VPAC2 + VIP",VIP receptor 2 (VPAC2); replicate 1,72.87
same,"Efficacy raw data for Glucagon-receptors, VPAC2 + VIP",VIP receptor 2 (VPAC2); replicate 3,74.68
